Patent US8586571B2, “Heterocyclic compound” (Takeda Pharmaceutical Company Limited, priority 2007, dated 2013)

Assays:
human RBP4 = human RBP4 (Homo sapiens (Human), UniProt P02753); assay: Binding assay by Retinol-RBP4-TTR ELISA (human-type ELISA); conditions: inhibition of binding of RBP4 with retinol and TTR; retinol 0.5 μM; read-out: human RBP4 binding inhibitory activity (IC50 nM)
Experimental: The action of the compound of the present invention to inhibit binding of RBP4 and retinol and TTR was evaluated using the Retinol-RBP4-TTR ELISA (human-type ELISA) system shown below.
Binding Assay by Retinol-RBP4-TTR ELISA
This ELISA system detects a complex of retinol, RBP4 and TTR by Streptoavidin-Biotin reaction.
His-tagged human RBP4 used was prepared in the above-mentioned 1C.
Biotinylate human TTR used was prepared in the above-mentioned 1E.
Streptavidin (20 μl) (10 μg/ml Streptavidin type II (Wako Pure Chemical Industries, Ltd.), 10 mM Tris-HCl (pH 7.5), 10 mM NaCl) was added to a 384 well black maxisorp plate (Nunc), and the plate was subjected to centrifugation (1000 rpm, 1 min) and coated overnight at 4° C. The plate was washed twice with PBST (PBS, 0.05% Tween 20, 100 μl/well) and blocked with 25% Block Ace (Snow Brand Milk Products Co., Ltd., PBS, 100 μl/well). The plate was subjected to centrifugation (1000 rpm, 1 min) and incubated at room temperature for 4 hr or overnight at 4° C. The plate was washed twice with PEST (PBS, 0.05% Tween 20, 100 μl/well), and biotinylated human TTR (stock solution concentration 1.3 mg/ml) diluted 1000-fold with PBST was added at 20 μl/well. The plate was subjected to centrifugation (1000 rpm, 1 min) and stood still at room temperature for 1.5 hr or overnight at 4° C. The plate was washed 3 times with PBST (100 μl/well), and His-tagged human RBP4 (stock solution concentration 0.96 mg/ml) diluted 4000-fold with a reaction buffer (50 mM Tris-HCl, 150 mM NaCl, 0.005% Tween 20, 1 mM DTT, 0.1% BSA) was added at 10 μl/well. The dilution series (8 doses from 10 mM, 200-fold concentration) of the compound was prepared with DMSO, and 1 μl of each was added to a reaction buffer (200 μl) containing retinol (0.5 μM) (Sigma-Aldrich Co.). A reaction buffer (200 μl) containing retinol and added with DMSO was used as a positive control, and reaction buffer (200 μl) free of retinol and added with DMSO was used as a negative control. Mixed solutions of retinol and the compound were added to the plate at 15 μl/well. The mixture was stirred in a platemixer subjected to centrifugation (1000 rpm, 1 min) and reacted at room temperature for 2 hr. A 35% Block Ace solution diluted with the reaction buffer was added at 10 μl/well, centrifuged (1000 rpm, 1 min) and reacted at room temperature for 30 min. The plate was washed 3 times with PBST (100 μl/well) and SuperSignal ELISA Femto Maximum Sensitivity Substrate reagent (PIERCE) was added at 30 μl/well, and the luminescence was measured by a platereader (Wallac).
The binding inhibitory rate of the compound was determined by 100×(test compound value-negative control value)/(positive control value-negative control value). The binding activity (IC50) was calculated from the binding inhibitory rate at each compound concentration using a graph drawing software, Prism (GraphPad Software Inc.).

RBP4 = RBP4 (Mus musculus (Mouse), UniProt Q00724); assay: Blood RBP4 lowering action in C57BL/6J mouse (plasma RBP4 by ELISA); type: in vivo; conditions: mean±SD (n=5)
Experimental: A blood RBP4 lowering action of the compound of the present invention was evaluated using C57BL/6J mouse.
Male 7- to 15-week-old C57BL/6J mice (Charles River Laboratories Japan Inc.) were individually bred for acclimation for 4-6 days under conditions with free access to CE-2 solid food (CLEA Japan, Inc.), and grouped based on the body weight (5 per group). The next day of grouping, blood samples were collected from the orbital venous plexus, and plasma was separated (0 hr value). Thereafter, the test compounds (Examples 12, 143, 164, 189, 197, 207 and 215) were orally administered at a dose of 50 mg/kg (solvent: 0.5% methylcellulose solution (10 mL/kg)). At 4, 7 and 24 hr after administration of the compounds, blood samples were collected from the orbital venous plexus, and plasma was separated. A 0.5% methylcellulose solution (10 mL/kg) was orally administered to the control group.
The RBP4 level of the collected plasma was measured by ELISA. RBP4 was quantified by the following steps using a rabbit anti-mouse RBP4 polyclonal antibody (Hokudo Co., Ltd). A 96 well ELISA plate was coated with 50 μg/mL of the antibody (100 μL) and stood at 4° C. overnight. After blocking with BlockAce (DAINIPPON PHARMACEUTICAL CO., LTD.), mouse RBP4 or a sample (100 μL) was added and the plate was stood at room temperature for 2 hr. After washing with PBS-0.5% Tween 20, HRP-labeled anti-RBP4 antibody (prepared by labeling RBP4 polyclonal antibody (Hokudo Co., Ltd) with HRP (DOJINDO LABORATORIES)) was added by 100 μL, and the plate was stood at room temperature for 1 hr. After washing, TMB (Dako Cytomations) was added, and the mixture was stood at room temperature for 20 min to allow color development, and the reaction was quenched with 2N sulfuric acid. Thereafter, the absorbance at A450 nm was measured on a platereader. The amount of change from the initial value of each animal was determined as a relative value from the control group (% of initial/Control) at each time point. The results are shown in the following in mean±standard deviation (n=5).

Zucker fa/fa rat = assay: TG-lowering action using Zucker fa/fa rat (Charles River Laboratories Japan Inc.); type: in vivo; conditions: oral 30 mg/kg for 2 weeks
Experimental: An anti-diabetes action and a blood triglyceride (hereinafter TG)-lowering action of the compound of the present invention were evaluated using Zucker fa/fa rats.
Male 10-week-old Zucker fa/fa rats (Charles River Laboratories Japan Inc.) were bred in group on CE-2 solid food (CLEA Japan, Inc.) until 12-week-old for acclimation under conditions with free access to food. At 12-week-old, the rats were grouped based on the body weight, blood glucose level, glycated hemoglobin level, blood RBP4 level and blood triglyceride blood (hereinafter TG) (5 per group). Thereafter, the test compound (Example 12) was orally administered at a dose of 30 mg/kg (solvent: 0.5% methylcellulose solution (3 mL/kg)) for 2 weeks. The next day of the final administration of the compound, blood samples were collected from the tail vein, and plasma was separated. Using the collected plasma, (1) RBP4 concentration and (2) TG level were measured. (1) was quantified according to the protocol described in Experimental Example 2. (2) was measured using Hitachi fully automatic analyzer (Model 7070).
A 0.5% methylcellulose solution (5 mL/kg) was orally administered to the control group. […] The results are shown in the following in mean±standard deviation (n=5).

IC50 (human RBP4): 210 nM
RBP4 (% of initial/Control) 4 hr later (RBP4; 4 hr after single oral 50 mg/kg): 57.7 ± 3.6 % of initial/Control
RBP4 (% of initial/Control) 7 hr later (RBP4; 7 hr after single oral 50 mg/kg): 44.3 ± 2.0 % of initial/Control
RBP4 (% of initial/Control) 24 hr later (RBP4; 24 hr after single oral 50 mg/kg): 50.0 ± 3.4 % of initial/Control
SMILES: CC(C)(C)c1ccccc1OC1CN(C(=O)CCC(=O)O)C1 [Example 12, 4-(3-(2-tert-butylphenoxy)azetidin-1-yl)-4-oxobutanoic acid]
TG (result in words) (Zucker fa/fa rat; versus control): significant decrease
blood RBP4 concentration (result in words) (Zucker fa/fa rat; versus control): significant decrease
RBP4 (Zucker fa/fa rat; plasma, mean±SD (n=5)): 8.2 ± 1.1 µg/mL
TG (Zucker fa/fa rat; plasma, mean±SD (n=5)): 650.8 ± 130.6 mg/dL
